Experimental data from patent US8188059B2, “Compounds and methods for modulating expression of GCGR” (Isis Pharmaceuticals, Inc., priority 2006, dated 2012).
Strand notation (5' to 3'): a small letter for the sugar, then the base; units joined by * are phosphorothioate-linked, units joined directly phosphodiester-linked; [ ] holds rarer units or linkages, { } end groups; capitals alone tell only the bases. [PALM-N] = nucleoside bearing a 2'-(butylacetamido)-palmitamide (C16 palmitic acid) substituent (N: the base); e = 2'-O-(2-methoxyethyl) (MOE); l = locked nucleic acid (LNA); [5mC] = 5-methylcytosine; d = 2'-deoxy (DNA)

How the values were obtained:
[1] = Full-length and total antisense compound tissue concentration in liver and kidney (Example 3, Table 30); format: in vivo, mouse; conditions: Balb/c mice, 2.4 μmol/kg i.p. twice per week for three weeks
Experimental: (§1) Antisense compound doses included 2.4, 1.2, 0.6, 0.3 and 0.15 μmol/kg. For antisense compounds 14 nucleotides in length, these doses equate to approximately 12, 6, 3, 1.5 or 0.75 mg/kg, respectively. Shown in Table 25 are the sequences and motifs of the antisense compounds used in this study. […] Bolded residues indicate 2′-O-methoxyethyl moieties and italicized residues indicate methyleneoxy (4′-CH2—O-2′) BNAs. The internucleoside linkages of each compound are phosphorothioate throughout. All cytosine residues of ISIS 147764 and ISIS 372938 are replaced by 5-methyl cytosines. For ISIS 387462, only the cytosine residue in the wing of the compound is replaced by 5-methyl cytosine. ApoB antisense compounds are targeted to publicly available ApoB-100 sequences, including Genbank Accession No. XM—137955.5 (SEQ ID NO: 2).
(§2) Forty-eight hours following the final injection, mice were sacrificed to evaluate transaminases (Table 26); liver and kidney weight (Table 27); triglyceride, LDL, HDL and free fatty acid levels (Table 28); target mRNA level in liver (Table 29); target protein level in plasma; and oligonucleotide tissue concentration (Table 30). These endpoints were determined using methods described herein and well known to those of ordinary skill in the art.
To determine whether the observed increase in efficiency with the methyleneoxy (4′-CH2—O-2′) BNA gapmer is due to an increase in oligonucleotide accumulation, full-length and total oligonucleotide concentration in the liver and kidney were determined.

ApoB mRNA [2] = assay: ApoB mRNA level in liver of Balb/c mice, i.p. twice per week for three weeks (Example 3, Table 29); format: in vivo, mouse; conditions: 2.4 μmol/kg i.p. twice per week for three weeks
Experimental: Prior to quantitative PCR analysis, primer-probe sets specific to the target gene being measured were evaluated for their ability to be “multiplexed” with a GAPDH amplification reaction. After isolation the RNA is subjected to sequential reverse transcriptase (RT) reaction and real-time PCR, both of which are performed in the same well. RT and PCR reagents were obtained from Invitrogen Life Technologies (Carlsbad, Calif.). […] The RT reaction was carried out by incubation for 30 minutes at 48° C. Following a 10 minute incubation at 95° C. to activate the […]® Taq, 40 cycles of a two-step PCR protocol were carried out: 95° C. for 15 seconds (denaturation) followed by 60° C. for 1.5 minutes (annealing/extension).
as §1, §2

[3] = Triglyceride, total cholesterol, HDL, LDL, free fatty acid and glucose levels (Example 3, Table 28); format: in vivo, mouse; design: Free Fatty Acid (FFA): unit not given here; conditions: Balb/c mice, 2.4 μmol/kg i.p. twice per week for three weeks
Experimental: as §1, §2
Glucose levels also were similar among all treatment groups.

[4] = ALT and AST levels, Balb/c mice (Example 3, Table 26); format: in vivo, mouse; conditions: 2.4 μmol/kg i.p. twice per week for three weeks, 48 h after final injection
Experimental: as §1, §2

[5] = Liver and kidney weight, total body weight and food consumption (Example 3, Table 27); format: in vivo, mouse; conditions: Balb/c mice, 2.4 μmol/kg i.p. twice per week for three weeks
Experimental: as §1, §2

[6] = HbA1c status in ZDF rats (Example 16, Table 72); format: in vivo, rat; conditions: for Percentage HbA1c on specific dates, Day 40 / Percentage HbA1c on specific dates, Day 55 / Percentage HbA1c on specific dates, Day 68: 400 nM/kg i.p. once a week for twelve weeks; for Percentage HbA1c on specific dates, Day 40: Day 40, p < 0.001; for Percentage HbA1c on specific dates, Day 55: Day 55, p < 0.001; for Percentage HbA1c on specific dates, Day 68: Day 68, p < 0.001
Experimental: (§3) ISIS 388625, 388626 and control oligo ISIS 388628 were analyzed for their effect on ZDF rat plasma glucose levels and HbA1c. The leptin receptor deficient Zucker diabetic fatty (ZDF) rat is a useful model for the investigation of type 2 diabetes. Diabetes develops spontaneously in these male rats at ages 8-10 weeks, and is associated with hyperphagia, polyuria, polydipsia, and impaired weight gain, symptoms which parallel the clinical symptoms of diabetes (Phillips M S, et al., 1996, Nat Genet. 13, 18-19). Six week old ZDF rats were injected intraperitoneally with short antisense compound at a dose of 400 nM/kg once a week for twelve weeks. Data are illustrated in Tables 71 and 72.

[7] = Plasma glucose in ZDF rats, once a week for twelve weeks (Example 16, Table 71); format: in vivo, rat
Experimental: as §3

ApoB mRNA [8] = assay: ApoB mRNA in liver of Balb/c mice, palmitic acid conjugates, single i.p. dose, with ED50 (Example 30, Table 95); format: in vivo, mouse; conditions: for % Inhib: Balb/c mice, about 48 hours after dose, relative to saline-treated controls
Experimental: 0.4, and 0.16 umol/kg. Each dose group consisted of four animals. A 5-10-5 MOE gapmer was used for a control treatment. Mice were sacrificed approximately 48 hours following the final dose. Liver tissue was collected for RNA isolation, and blood was collected for serum chemistry analyses. ApoB mRNA levels were measured by real-time PCR as described herein. ApoB mRNA levels were normalized to RNA levels as determined by RIBOGREEN, and are presented in Table 95 as percent inhibition relative to ApoB mRNA levels in saline-treated control animals.
At the 2.5 umol/kg dose, ApoB inhibition by the short antisense compounds was greater than observed with a 5-10-5 MOE gapmer at an equivalent dose. […] Triglycerides were reduced at the 2.5 and […] doses of ISIS 387462 and ISIS 391872.

mouse SGLT2 mRNA [9] = assay: Mouse SGLT2 mRNA levels in kidney, additional 1-10-1 and 2-8-2 MOE gapmers, Balb/c mice (Example 15, Table 68); format: in vivo
Experimental: 1-10-1 and 2-8-2 MOE gapmer short antisense compounds were designed to target different regions of the mouse SGLT2 RNA but have complementarity across species. […] All cytidine residues are 5-methylcytidines.
The short antisense compounds were analyzed for their effect on mouse SGLT2 mRNA levels in vivo. Data was taken from three experiments in which male 6-week old Balb/c mice were dosed twice per week for three weeks with 0.5, 0.1, or 0.02 umol/kg of either a 1-10-1 or 2-8-2 MOE gapmer given by intraperitoneal injection. Mice were sacrificed 48 hours following last administration and evaluated for SGLT2 levels in kidney. Target levels were determined by RT, real-time PCR as described by other examples herein. PCR results were normalized to an internal ISIS control.

mouse SGLT2 mRNA [10] = assay: Mouse SGLT2 mRNA levels in kidney, MOE versus Methyleneoxy BNA gapmers, Balb/c mice (Example 15, Table 69); format: in vivo
Experimental: The effect of ISIS 379692 1-10-1 MOE gapmer and ISIS 388625 2-8-2 MOE gapmer are compared with the effect of ISIS 392170 1-10-1 Methyleneoxy BNA Gapmer and ISIS 392173 2-8-2 Methyleneoxy BNA Gapmer (see Table 69) on mouse SGLT2 mRNA levels in vivo. Data are taken from three experiments in which male 6-week old Balb/c mice were dosed twice per week for three weeks with 5, 25 and 125 nmol/kg of either the ISIS 379692 1-10-1 MOE gapmer or the ISIS 388625 2-8-2 MOE gapmer given by intraperitoneal injection. Mice were sacrificed 48 hours following last administration and evaluated for SGLT2 mRNA levels in kidney. Target levels were determined by RT, real-time PCR as described by other examples herein. PCR results were normalized to an internal ISIS control. The data are expressed as percent change (“+” indicates an increase, “−” indicates a decrease) relative to saline treated animals and are illustrated in Table 69.

[11] = Day 10, 400 nM/kg i.p. once a week for twelve weeks
[12] = Day 40, 400 nM/kg i.p. once a week for twelve weeks
[13] = Day 55, 400 nM/kg i.p. once a week for twelve weeks
[14] = Day 66, 400 nM/kg i.p. once a week for twelve weeks
[15] = compared to PBS and control treated animals
[16] = 5 nmol/kg i.p. twice per week for three weeks
[17] = 25 nmol/kg i.p. twice per week for three weeks
[18] = 125 nmol/kg i.p. twice per week for three weeks

147764 (antisense eG*eT*e[5mC]*e[5mC]*e[5mC]*dT*dG*dA*dA*dG*dA*dT*dG*dT*d[5mC]*eA*eA*eT*eG*e[5mC]) [compound 147764]
Kidney Full-Length antisense compound tissue concentration [1]: 28.6 µM
Kidney Total antisense compound tissue concentration [1]: 33.5 µM
Liver Full-Length antisense compound tissue concentration [1]: 22.9 µM
Liver Total antisense compound tissue concentration [1]: 31.3 µM
ApoB mRNA level (ApoB mRNA [2]; Table 30 (rounded)): 58 % of saline control
% ApoB mRNA Level (relative to saline control) (ApoB mRNA [2]; liver): 57.7%
Free Fatty Acid (FFA) [3]: 1.29
HDL [3]: 81.3 mg/dL
LDL [3]: 10.3 mg/dL
Total Cholesterol (CHOL) [3]: 107 mg/dL
Triglyceride (TRIG) [3]: 167 mg/dL
ALT [4]: 29.5 IU/L
AST [4]: 64.0 IU/L
Kidney Weight [5]: 105 % of saline control
Liver Weight [5]: 102 % of saline control

388625 (antisense eT*eG*dT*dT*d[5mC]*d[5mC]*dA*dG*d[5mC]*d[5mC]*e[5mC]*eA) [compound 388625]
Percentage HbA1c on specific dates, Day 40 [6]: 6.5%
Percentage HbA1c on specific dates, Day 55 [6]: 5.8%
Percentage HbA1c on specific dates, Day 68 [6]: 4.3%
Plasma glucose levels [7, 11]: 435.5 mg/dL
Plasma glucose levels [7, 12]: 278.7 mg/dL
Plasma glucose levels [7, 13]: 213.8 mg/dL
Plasma glucose levels [7, 14]: 325.5 mg/dL

388628 (antisense eT*eA*dG*d[5mC]*d[5mC]*dG*d[5mC]*d[5mC]*d[5mC]*dA*e[5mC]*eA) [compound 388628]
Percentage HbA1c on specific dates, Day 40 [6]: 8.0%
Percentage HbA1c on specific dates, Day 55 [6]: 9.1%
Percentage HbA1c on specific dates, Day 68 [6]: 7.8%
Plasma glucose levels [7, 11]: 436.0 mg/dL
Plasma glucose levels [7, 12]: 502.0 mg/dL
Plasma glucose levels [7, 13]: 411.2 mg/dL
Plasma glucose levels [7, 14]: 668.8 mg/dL

391871 (antisense [PALM-G]*eG*dT*dA*dC*dA*dT*dG*dG*dA*dA*dG*eT*e[5mC]) [compound 391871]
% Inhib (ApoB mRNA [8]; single i.p. dose 0.16 umol/kg): 0%
% Inhib (ApoB mRNA [8]; single i.p. dose 0.4 umol/kg): 5%
% Inhib (ApoB mRNA [8]; single i.p. dose 1.0 umol/kg): 18%

391872 (antisense [PALM-G]*lG*dT*dA*dC*dA*dT*dG*dG*dA*dA*dG*lT*l[5mC]) [compound 391872]
% Inhib (ApoB mRNA [8]; single i.p. dose 0.16 umol/kg): 18%
% Inhib (ApoB mRNA [8]; single i.p. dose 0.4 umol/kg): 50%
% Inhib (ApoB mRNA [8]; single i.p. dose 1.0 umol/kg): 92%

ISIS 388626: SGLT2; GGCATGAGCTTC 2-8-2 MOE (antisense eG*eG*d[5mC]*dA*dT*dG*dA*dG*d[5mC]*dT*eT*e[5mC])
Percentage HbA1c on specific dates, Day 40 [6]: 6.6%
Percentage HbA1c on specific dates, Day 55 [6]: 5.9%
Percentage HbA1c on specific dates, Day 68 [6]: 4.0%
HbA1C [6, 15]: significantly reduced
Plasma glucose levels [7, 11]: 434.7 mg/dL
Plasma glucose levels [7, 12]: 300.5 mg/dL
Plasma glucose levels [7, 13]: 219.8 mg/dL
Plasma glucose levels [7, 14]: 379.8 mg/dL
Plasma glucose levels [7, 15]: significantly reduced
% change in SGLT2 expression relative to saline (mouse SGLT2 mRNA [9]; 0.02 umol/kg i.p. twice per week for three weeks): −45%
% change in SGLT2 expression relative to saline (mouse SGLT2 mRNA [9]; 0.1 umol/kg i.p. twice per week for three weeks): −60%
% change in SGLT2 expression relative to saline (mouse SGLT2 mRNA [9]; 0.5 umol/kg i.p. twice per week for three weeks): −80%

ISIS 391871: ApoB; GGTACATGGAAGTC 1-1-10-2 2′-(butylacetomido)-palmitamide/MOE/MOE Unmodified cytosines in gap (antisense [PALM-G]*eG*dT*dA*dC*dA*dT*dG*dG*dA*dA*dG*eT*e[5mC])
estimated ED50 (ApoB mRNA [8]; single i.p. injection): 13.1 mg/kg

ISIS 392170: SGLT2; 1-10-1 Methyleneoxy BNA Gapmer (antisense lT*dG*dT*dT*d[5mC]*d[5mC]*dA*dG*d[5mC]*d[5mC]*d[5mC]*lA)
SGLT2 mRNA, percent change relative to saline treated animals (mouse SGLT2 mRNA [10]; [16]): −23 percent change
SGLT2 mRNA, percent change relative to saline treated animals (mouse SGLT2 mRNA [10]; [17]): −54 percent change
SGLT2 mRNA, percent change relative to saline treated animals (mouse SGLT2 mRNA [10]; [18]): −69 percent change

ISIS 392173: SGLT2; 2-8-2 Methyleneoxy BNA Gapmer (antisense lT*lG*dT*dT*d[5mC]*d[5mC]*dA*dG*d[5mC]*d[5mC]*l[5mC]*lA)
SGLT2 mRNA, percent change relative to saline treated animals (mouse SGLT2 mRNA [10]; [16]): −44 percent change
SGLT2 mRNA, percent change relative to saline treated animals (mouse SGLT2 mRNA [10]; [17]): −57 percent change
SGLT2 mRNA, percent change relative to saline treated animals (mouse SGLT2 mRNA [10]; [18]): −75 percent change
